Laboratory results reported in patent publication US10562909B2, “Fused quadracyclic compounds, compositions and uses thereof” (Tabomedex Biosciences, LLC, priority 2016, dated 2020).

Biological target: MAPKAPK2 (Homo sapiens, UniProt P49137)
Experiment: MK2 Enzymatic Assay
Assay type: biochemical
Details: 0.5 nM MAPKAPK2, 3 μM ATP, 2 μM Ser/Thr4 peptide, 23° C., values given as concentration bins
Description: Briefly, 5 μL of 2× (4 μM) 100% phosphorylation peptide was delivered into the control wells of a 384-well assay plate. 5 μL of 2× (1 nM) MAPKAPK2 and 2× peptide (4 μM) mixture in assay buffer was dispensed to remaining columns of assay plate using Eppendorf electronic multiple channel pipette. The assay plate was incubated for 20 minutes. 5 μL of 2× ATP (6 μM) in assay buffer was dispensed to each well and then the assay plate was lightly centrifuged. The assay plate was incubated for an additional 120 minutes.
5 μL of development reagent A was dispensed to all wells using Eppendorf electronic multiple channel pipette. After incubating the development reaction for 120 min, plates were read on a Perkin Elmer Envision instrument.
Percent phosphorylation was calculated using the following formula:
[formula] Where • C100%=Average Coumarin emission signal of the 100% Phos. Control • C0%=Average Coumarin emission signal of the 0% Phos. Control • F100%=Average Fluorescein emission signal of the 100% Phos. Control • F0%=Average Flurescein emission signal of the 0% Phos. Control

Sequence of MAPKAPK2 (P49137 whole entry, species assumed): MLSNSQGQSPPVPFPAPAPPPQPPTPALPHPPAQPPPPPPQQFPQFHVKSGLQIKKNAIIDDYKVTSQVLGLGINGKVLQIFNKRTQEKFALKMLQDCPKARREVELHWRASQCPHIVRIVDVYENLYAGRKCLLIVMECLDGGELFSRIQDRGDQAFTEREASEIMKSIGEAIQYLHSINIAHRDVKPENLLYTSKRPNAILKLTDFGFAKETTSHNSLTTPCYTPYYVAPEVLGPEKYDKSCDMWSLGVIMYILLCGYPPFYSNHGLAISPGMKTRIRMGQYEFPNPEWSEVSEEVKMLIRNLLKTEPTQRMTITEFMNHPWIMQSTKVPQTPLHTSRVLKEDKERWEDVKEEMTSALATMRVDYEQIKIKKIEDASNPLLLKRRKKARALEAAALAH

IC50	Compound
< 50 nM	CN(C)C[C@H]1CN(c2ccc3c(c2)Cn2cc(-c4ccc(C#N)cc4)cc2-c2nncn2-3)C[C@H]1O [Compound 81, 4-(7-((3S,4S)-3-((dimethylamino)methyl)-4-hydroxypyrrolidin-1-yl)-9H-benzo[e]pyrrolo[1,2-a][1,2,4]triazolo[3,4-c][1,4]diazepin-12-yl)benzonitrile]
< 50 nM	CN(C)C[C@@H]1CN(c2ccc3c(c2)Cn2cc(-c4ccc(C#N)cc4)cc2-c2nncn2-3)C[C@@H]1O [Compound 82, 4-(7-((3R,4R)-3-((dimethylamino)methyl)-4-hydroxypyrrolidin-1-yl)-9H-benzo[e]pyrrolo[1,2-a][1,2,4]triazolo[3,4-c][1,4]diazepin-12-yl)benzonitrile]
50 to 100 nM	CN(C)[C@@H]1CN(c2ccc3c(c2)Cn2cc(-c4ccc(C#N)cc4)cc2-c2nncn2-3)C[C@@H]1O [Compound 83, 4-(7-((3R,4S)-3-(dimethylamino)-4-hydroxypyrrolidin-1-yl)-9H-benzo[e]pyrrolo[1,2-a] [1,2,4]triazolo[3,4-c][1,4]diazepin-12-yl)benzonitrile]
< 50 nM	C[C@H](CO)NC[C@H]1CCN(c2ccc3c(c2)Cn2cc(-c4ccc(C#N)cc4)cc2-c2nncn2-3)C1 [Compound 85, 4-(7-((R)-3-((((R)-1-hydroxypropan-2-yl)amino)methyl)pyrrolidin-1-yl)-9H-benzo[e]pyrrolo[1,2-a][1,2,4]triazolo[3,4-c][1,4]diazepin-12-yl)benzonitrile]
< 50 nM	C[C@@H](CO)NC[C@@H]1CCN(c2ccc3c(c2)Cn2cc(-c4ccc(C#N)cc4)cc2-c2nncn2-3)C1 [Compound 86, 4-(7-((S)-3-((((S)-1-hydroxypropan-2-yl)amino)methyl)pyrrolidin-1-yl)-9H-benzo[e]pyrrolo[1,2-a][1,2,4]triazolo[3,4-c][1,4]diazepin-12-yl)benzonitrile]
100 to 200 nM	C[C@@H](CO)N(C)C1CCN(c2ccc3c(c2)Cn2cc(-c4ccc(C#N)cc4)cc2-c2nncn2-3)CC1 [Compound 104, (S)-4-(7-(4-((1-hydroxypropan-2-yl)(methyl)amino)piperidin-1-yl)-9H-benzo[e]pyrrolo[1,2-a][1,2,4]triazolo[3,4-c][1,4]diazepin-12-yl)benzonitrile]
< 50 nM	CN(C)C[C@@H]1CN(c2ccc3c(c2)Cn2cc(-c4ccc(C#N)cc4)cc2-c2nncn2-3)C[C@H]1O [Compound 108, 4-(7-((3R,4S)-3-((dimethylamino)methyl)-4-hydroxypyrrolidin-1-yl)-9H-benzo[e]pyrrolo[1,2-a][1,2,4]triazolo[3,4-c][1,4]diazepin-12-yl)benzonitrile]
< 50 nM	CN(C)C[C@H]1CN(c2ccc3c(c2)Cn2cc(-c4ccc(C#N)cc4)cc2-c2nncn2-3)C[C@@H]1O [Compound 109, 4-(7-((3S,4R)-3-((dimethylamino)methyl)-4-hydroxypyrrolidin-1-yl)-9H-benzo[e]pyrrolo[1,2-a][1,2,4]triazolo[3,4-c][1,4]diazepin-12-yl)benzonitrile]
< 50 nM	N#Cc1ccc(-c2cc3n(c2)Cc2cc(N4CC[C@@H](CN5CCC(O)CC5)C4)ccc2-n2cnnc2-3)cc1 [Compound 110, (S)-4-(7-(3-((4-hydroxypiperidin-1-yl)methyl)pyrrolidin-1-yl)-9H-benzo[e]pyrrolo[1,2-a] [1,2,4]triazolo[3,4-c][1,4]diazepin-12-yl)benzonitrile]
< 50 nM	N#Cc1ccc(-c2cc3n(c2)Cc2cc(N4CC[C@H](CN5CCC(O)CC5)C4)ccc2-n2cnnc2-3)cc1 [Compound 111, (R)-4-(7-(3-((4-hydroxypiperidin-1-yl)methyl)pyrrolidin-1-yl)-9H-benzo[e]pyrrolo[1,2-a] [1,2,4]triazolo[3,4-c][1,4]diazepin-12-yl)benzonitrile]
< 50 nM	CN1CC2(CCN(c3ccc4c(c3)Cn3cc(-c5ccc(C#N)cc5)cc3-c3nccn3-4)C2)C1 [Compound 125, 4-(7-(2-methyl-2,6-diazaspiro[3.4]octan-6-yl)-9H-benzo[e]imidazo[2,1-c]pyrrolo[1,2-a][1,4]diazepin-12-yl)benzonitrile]
50 to 100 nM	CN(C)C[C@H]1CN(c2ccc3c(c2)Cn2cc(-c4ccc(C#N)cc4)cc2-c2nccn2-3)C[C@H]1O [Compound 128, 4-(7-((3S,4S)-3-((dimethylamino)methyl)-4-hydroxypyrrolidin-1-yl)-9H-benzo[e]imidazo[2,1-c]pyrrolo[1,2-a][1,4]diazepin-12-yl)benzonitrile]
< 50 nM	CN(C)C[C@@H]1CN(c2ccc3c(c2)Cn2cc(-c4ccc(C#N)cc4)cc2-c2nccn2-3)C[C@@H]1O [Compound 129, 4-(7-((3R,4R)-3-((dimethylamino)methyl)-4-hydroxypyrrolidin-1-yl)-9H-benzo[e]imidazo[2,1-c]pyrrolo[1,2-a][1,4]diazepin-12-yl)benzonitrile]
< 50 nM	CN(C)[C@@H]1CN(c2ccc3c(c2)Cn2cc(-c4ccc(C#N)cc4)cc2-c2nccn2-3)C[C@H]1O [Compound 130, 4-(7-((3R,4R)-3-(dimethylamino)-4-hydroxypyrrolidin-1-yl)-9H-benzo[e]imidazo[2,1-c]pyrrolo[1,2-a][1,4]diazepin-12-yl)benzonitrile]
< 50 nM	CN(C)[C@H]1CN(c2ccc3c(c2)Cn2cc(-c4ccc(C#N)cc4)cc2-c2nccn2-3)C[C@@H]1O [Compound 131, 4-(7-((3S,4S)-3-(dimethylamino)-4-hydroxypyrrolidin-1-yl)-9H-benzo[e]imidazo[2,1-c]pyrrolo[1,2-a][1,4]diazepin-12-yl)benzonitrile]
< 50 nM	CN(C)[C@H]1CN(c2ccc3c(c2)Cn2cc(-c4ccc(C#N)cc4)cc2-c2nccn2-3)C[C@H]1O [Compound 133, 4-(7-((3S,4R)-3-(dimethylamino)-4-hydroxypyrrolidin-1-yl)-9H-benzo[e]imidazo[2,1-c]pyrrolo[1,2-a][1,4]diazepin-12-yl)benzonitrile]
< 50 nM	CN(C)[C@@H]1CN(c2ccc3c(c2)Cn2cc(-c4ccc(C#N)cc4)cc2-c2nccn2-3)C[C@@H]1O [Compound 134, 4-(7-((3R,4S)-3-(dimethylamino)-4-hydroxypyrrolidin-1-yl)-9H-benzo[e]imidazo[2,1-c]pyrrolo[1,2-a][1,4]diazepin-12-yl)benzonitrile]
< 50 nM	C[C@H](CO)NC[C@@H]1CCN(c2ccc3c(c2)Cn2cc(-c4ccc(C#N)cc4)cc2-c2nccn2-3)C1 [Compound 135, 4-(7-((S)-3-((((R)-1-hydroxypropan-2-yl)amino)methyl)pyrrolidin-1-yl)-9H-benzo[e]imidazo[2,1-c]pyrrolo[1,2-a][1,4]diazepin-12-yl)benzonitrile]
< 50 nM	C[C@H](CO)NC[C@H]1CCN(c2ccc3c(c2)Cn2cc(-c4ccc(C#N)cc4)cc2-c2nccn2-3)C1 [Compound 136, 4-(7-((R)-3-((((R)-1-hydroxypropan-2-yl)amino)methyl)pyrrolidin-1-yl)-9H-benzo[e]imidazo[2,1-c]pyrrolo[1,2-a][1,4]diazepin-12-yl)benzonitrile]
< 50 nM	CN(C)C[C@H]1CN(c2ccc3c(c2)Cn2cc(-c4ccc(C#N)cc4)cc2-c2nccn2-3)C[C@@H]1O [Compound 137, 4-(7-((3S,4R)-3-((dimethylamino)methyl)-4-hydroxypyrrolidin-1-yl)-9H-benzo[e]imidazo[2,1-c]pyrrolo[1,2-a][1,4]diazepin-12-yl)benzonitrile]
< 50 nM	CN(C)C[C@@H]1CN(c2ccc3c(c2)Cn2cc(-c4ccc(C#N)cc4)cc2-c2nccn2-3)C[C@H]1O [Compound 138, 4-(7-((3R,4S)-3-((dimethylamino)methyl)-4-hydroxypyrrolidin-1-yl)-9H-benzo[e]imidazo[2,1-c]pyrrolo[1,2-a][1,4]diazepin-12-yl)benzonitrile]
< 50 nM	CC(C)(CO)NC[C@@H]1CCN(c2ccc3c(c2)Cn2cc(-c4ccc(C#N)cc4)cc2-c2nccn2-3)C1 [Compound 141, (S)-4-(7-(3-(((1-hydroxy-2-methylpropan-2-yl)amino)methyl)pyrrolidin-1-yl)-9H-benzo[e]imidazo[2,1-c]pyrrolo[1,2-a][1,4]diazepin-12-yl)benzonitrile]
< 50 nM	N#Cc1ccc(-c2cc3n(c2)Cc2cc(N4CC[C@@H](CN5CCC(O)CC5)C4)ccc2-n2ccnc2-3)cc1 [Compound 142, (S)-4-(7-(3-((4-hydroxypiperidin-1-yl)methyl)pyrrolidin-1-yl)-9H-benzo[e]imidazo[2,1-c]pyrrolo[1,2-a][1,4]diazepin-12-yl)benzonitrile]
< 50 nM	N#Cc1ccc(-c2cc3n(c2)Cc2cc(N4CC[C@H](CN5CCC(O)CC5)C4)ccc2-n2ccnc2-3)cc1 [Compound 143, (R)-4-(7-(3-((4-hydroxypiperidin-1-yl)methyl)pyrrolidin-1-yl)-9H-benzo[e]imidazo[2,1-c]pyrrolo[1,2-a][1,4]diazepin-12-yl)benzonitrile]
100 to 200 nM	CN[C@@H]1CCN(c2ccc3c(c2)Cn2c(cc(-c4ccc(C#N)cc4)c2Cl)-c2nncn2-3)C1 [Compound 166, (R)-4-(11-chloro-7-(3-(methylamino)pyrrolidin-1-yl)-9H-benzo[e]pyrrolo[1,2-a][1,2,4]tri-azolo[3,4-c][1,4]diazepin-12-yl)benzonitrile]
50 to 100 nM	CN[C@H]1CCN(c2ccc3c(c2)Cn2c(cc(-c4ccc(C#N)cc4)c2Cl)-c2nncn2-3)C1 [Compound 167, (S)-4-(11-chloro-7-(3-(methylamino)pyrrolidin-1-yl)-9H-benzo[e]pyrrolo[1,2-a][1,2,4]tri-azolo[3,4-c][1,4]diazepin-12-yl)benzonitrile]
